# According to patent US20090042861A1, “Prophylactic or Therapeutic Agent for Depression or Anxiety Disorder” (Takeda Pharmaceutical Company Limited, priority 2005, published 2009):
# Experiments:
# male ICR (Jcl) mice = test: Mouse tail suspension test; format: in vivo; conditions: for moving power at the trial of tail suspension test: FIGS. 9, 10
# Procedure: Action on immobility and moving power in a single application test of Paroxetine and compound A Used Animals: male ICR (Jcl) mice of 6 weeks old were used. Drug Administration Group and Test Method: Test was carried out for the following conditions. (each group n=12)
# (§1) Paroxetine was dissolved in 0.5% methylcellulose physiological saline, and compound A was suspended in 0.5% methylcellulose aqueous solution for injection. To control group, a 0.5% methylcellulose physiological saline for injection was administered as vehicle. A dose of 20 ml/kg was administered intraperitoneally, respectively. Administration was carried out 30 minutes before trial of tail suspension.
# Animals were put in a 5-row-cage with 8 each cage, and fully habituated. Drug administrations and trials were performed between 13:00 and 17:00.
# An automated measuring equipment made according to the method of Steru (Psycopharmacology 85, 367-370, 1985) was used for measurement. The mouse was suspended by the tail in a soundproof box (16 cm×38 cm×33 cm) divided individually, and then the immobility rate of 10 minutes duration was measured. Tail suspension was carried out by fixing a 5 cm wire to a sensor and suspending the mouse with fixing its tail with a tape at the end of the wire. By weighing every 10 msec, the movement of the mouse was calculated through A/D converter as moving power for one second. The moving power of less than 1% of body weight of mouse was considered to be in the immobile state, and the immobility rate for every one minute was measured. Test was carried out for 10 minutes, and all the experiments were controlled with personal computer (NEC-9801).
# Action on immobility and moving power in a combined application test of Paroxetine and compound A Used Animals: male ICR (Jcl) mice of 6 weeks old were used. Drug Administration Group and Test Method: Test was carried out for the following conditions. (each group n=15-16)
# as §1, with “vehicle. As a drug solution to be combined, a drug solution having twice concentration of final concentration was prepared, and adjusted to final concentration by mixing equal amounts.” for “vehicle.”
# male Wister (Jcl) rats [1] = test: Water-drinking conflicting test; format: in vivo, rat; conditions: Example 1
# Procedure: Animal: male Wister (Jcl) rats were purchased at the age of 8 weeks old, and used at the age of 9 weeks old.
# First, rats were put in a separate cage, and abstained from water for two days under light-dark (12-hour cycle) condition. On the day of experiment, rats were habituated to the experiment room for more than 60 minutes, and administered intraperitoneally with 30 mg/kg of compound A, 30 mg/kg of melatonin or vehicle, and then test was carried out 30 minutes after the administration.
# The drug used (compound A, melatonin) was suspended in 0.5% methylcellulose physiological saline to adjust dosage to 2 mL/kg, and administered intraperitoneally. To the vehicle administration group, a 0.5% methylcellulose physiological saline was administered in the same way. All administrations and trials were performed between 9:00 and 12:00.
# In the present experiment, when the animals pre-raised under a water-deprived condition drink water, they are placed in a conflicting state that they get electroshocked under the following condition.
# Test Time: 300 seconds, Shock Condition: in case either 20 times of lick frequency or 2 seconds of lick time is satisfied
# Shock ON Time: 2 seconds, Time-out: 180 seconds, Stimulus Intensity: 0.6 mA
# Animal: male Wister (Jcl) rats were purchased at the age of 8 weeks old, and used at the age of 9 weeks old. Drug Administration Group and Test Method: Test was carried out for the following conditions. (each group n=10)
# Compound A and Diazepam were suspended in 0.5% methylcellulose solution to adjust dosage to 2 mL/kg, and administered intraperitoneally. To control group, a 0.5% methylcellulose physiological saline for injection was administered as vehicle. As a drug solution to be combined, a drug solution having twice concentration of final concentration was prepared, and adjusted to final concentration by mixing equal amounts. A dose of 2 mL/kg was administered intraperitoneally, respectively. All administrations and trials were performed between 9:00 and 13:00.
# First, rats were put in a separate cage, and abstained from water for two days under light-dark (12-hour cycle) condition. On the day of experiment, rats were habituated to the experiment room for more than 60 minutes, and each drug was administered intraperitoneally, and then test was carried out 30 minutes after the administration.
# Significant difference test was performed with using Williams' test for vehicle administration group and multigroup drug administration groups. t-Test was used for vehicle administration group and single drug administration groups. A dose of compound A (0.3, 10 and 30 mg/kg) and 0.3 mg/kg of Diazepam were administered in combination.
# male Wister (Jcl) rats [2] = test: Elevated plus-maze test; format: in vivo, rat; conditions: Example 3
# Procedure: Animal: male Wister (Jcl) rats were purchased at the age of 5 weeks old, and used at the age of 6 weeks old.
# An elevated plus-maze test equipment having arm 50 cm long by 10 cm wide was used. Its height was 40 cm, and the height of closed arm was adjusted to the same. Black was used as the color of wall. Lighting in experiment room was set to 5 lux of illuminance on the equipment.
# The animals were handled from 2 days before test. Test was carried out between 8 a.m. and […]., and the animals were naturalized in the conduct test room at a measurement illuminance from 1 hour before the start of test.
# The drug used (compound A, melatonin) was suspended in 0.5% methylcellulose physiological saline to adjust dosage to 2 mL/kg, and administered intraperitoneally. To the vehicle administration group, a 0.5% methylcellulose physiological saline was administered in the same way.
# In the elevated plus-maze test, the animal was put in the central region of maze with the head to the direction of closed arm, and the conduct of 5 minutes duration was observed. Measurement items were number of entries into open arms and time spent in open arms which were used as an indicator of anxiety conducts, and it was considered that the more the number of entries into open arms, time spent in open arms and dipping frequency are, the less the anxiety conducts are. Further, the number of entries into closed arms was counted, which was used as an indicator of amount of motor-activity. […] Test was performed with n=10 for each group. Trial was carried out over 2 days, and 2 days' data were summed up as one test.
# Significant difference test was performed with using Williams' test for vehicle administration group and multigroup drug administration groups.
structure (smiles),measurement,setting,value
Fc1ccc([C@@H]2CCNC[C@H]2COc2ccc3c(c2)OCO3)cc1 [Paroxetine],moving power at the trial of tail suspension test,"male ICR (Jcl) mice; Example 4, single application, 0.3, 1, 3 and 10 mg/kg (i.p.), vs vehicle group",increase a little
CN1C(=O)CN=C(c2ccccc2)c2cc(Cl)ccc21 [Diazepam],effect in this system (control drug),"male Wister (Jcl) rats [1]; control drug, dose not given",exhibits an effect
same,effect in this system (control drug),"male Wister (Jcl) rats [2]; control drug, dose not given",exhibits an effect
"CCC(=O)NCC[C@@H]1CCc2ccc3c(c21)CCO3 [Compound A, (S)-N-[2-(1,6,7,8-Tetrahydro-2H-indeno[5,4-b]furan-8-yl)ethyl]propionamide]",immobility,"male ICR (Jcl) mice; Example 4, single application, 3, 10 and 30 mg/kg (i.p.), 30 minutes before trial, FIGS. 7, 8",didn't have an affect
same,moving power at the trial of tail suspension test,"male ICR (Jcl) mice; Example 4, single application, 3, 10 and 30 mg/kg (i.p.)",didn't have an affect
same,effect on the antidepressant action of Paroxetine,"male ICR (Jcl) mice; Example 5, Compound A 1, 3 and 10 mg/kg with Paroxetine 1 mg/kg (i.p.)",enhances the antidepressant action of Paroxetine
same,lick frequency,"male Wister (Jcl) rats [1]; 30 mg/kg intraperitoneally, test 30 minutes after administration, vs vehicle group, Williams' test, FIG. 1",significant increasing effect
same,shock frequency,"male Wister (Jcl) rats [1]; 30 mg/kg intraperitoneally, test 30 minutes after administration, vs vehicle group, Williams' test, FIG. 2",significant increasing effect
same,time spent in open arms,"male Wister (Jcl) rats [2]; intraperitoneal, 5 minutes observation, vs vehicle group, FIG. 5",an increase
same,number of entries into open arms,"male Wister (Jcl) rats [2]; intraperitoneal, 5 minutes observation, vs vehicle group, FIG. 6",an increase
COc1ccc2[nH]cc(CCNC(C)=O)c2c1 [melatonin],anti-conflicting effect,"male Wister (Jcl) rats [1]; 30 mg/kg intraperitoneally, test 30 minutes after administration, vs vehicle group, Williams' test","a little anti-conflicting effect was observed, but it was not a significant effect"
same,action in elevated plus-maze (open arm entries and time),"male Wister (Jcl) rats [2]; intraperitoneal, vs vehicle group, Williams' test",a significant action was not observed
